Measurements taken from patent US6777420B2, “Heterocyclic antibacterial compounds” (Microbiotix, Inc., priority 2001, dated 2004).
Values after ≈ are worked out from the molar mass of the structure shown. Marks after values point to notes of the source that are not given here.

Legend:
E. fecalis = assay: MIC determination, E. fecalis; format: cell-based, Enterococcus fecalis
Protocol: (§1) Minimal Inhibitory Concentration (MIC) determinations. […] Each drug is evaluated at five concentrations, with five data points at each dilution. MIC values (μg/ml) were determined against actively growing cultures in Heart-Brain Infusion (HBI) medium. Cell growth in cultures supplemented with a test compound was calculated as a percent of control at OD 600 nm after 16 to 18 hours at 37° C.

B. subtilis Pol IIIC = biological target: T1, B. subtilis Pol IIIC (Bacillus subtilis, UniProt P13267); assay: Polymerase IIIC (Pol IIIC) assay, determination of Ki values; format: biochemical; settings: Ki = concentration that reduces control polymerase activity by 50 percent
T1 construct: made in house
T1 sequence (P13267 whole entry): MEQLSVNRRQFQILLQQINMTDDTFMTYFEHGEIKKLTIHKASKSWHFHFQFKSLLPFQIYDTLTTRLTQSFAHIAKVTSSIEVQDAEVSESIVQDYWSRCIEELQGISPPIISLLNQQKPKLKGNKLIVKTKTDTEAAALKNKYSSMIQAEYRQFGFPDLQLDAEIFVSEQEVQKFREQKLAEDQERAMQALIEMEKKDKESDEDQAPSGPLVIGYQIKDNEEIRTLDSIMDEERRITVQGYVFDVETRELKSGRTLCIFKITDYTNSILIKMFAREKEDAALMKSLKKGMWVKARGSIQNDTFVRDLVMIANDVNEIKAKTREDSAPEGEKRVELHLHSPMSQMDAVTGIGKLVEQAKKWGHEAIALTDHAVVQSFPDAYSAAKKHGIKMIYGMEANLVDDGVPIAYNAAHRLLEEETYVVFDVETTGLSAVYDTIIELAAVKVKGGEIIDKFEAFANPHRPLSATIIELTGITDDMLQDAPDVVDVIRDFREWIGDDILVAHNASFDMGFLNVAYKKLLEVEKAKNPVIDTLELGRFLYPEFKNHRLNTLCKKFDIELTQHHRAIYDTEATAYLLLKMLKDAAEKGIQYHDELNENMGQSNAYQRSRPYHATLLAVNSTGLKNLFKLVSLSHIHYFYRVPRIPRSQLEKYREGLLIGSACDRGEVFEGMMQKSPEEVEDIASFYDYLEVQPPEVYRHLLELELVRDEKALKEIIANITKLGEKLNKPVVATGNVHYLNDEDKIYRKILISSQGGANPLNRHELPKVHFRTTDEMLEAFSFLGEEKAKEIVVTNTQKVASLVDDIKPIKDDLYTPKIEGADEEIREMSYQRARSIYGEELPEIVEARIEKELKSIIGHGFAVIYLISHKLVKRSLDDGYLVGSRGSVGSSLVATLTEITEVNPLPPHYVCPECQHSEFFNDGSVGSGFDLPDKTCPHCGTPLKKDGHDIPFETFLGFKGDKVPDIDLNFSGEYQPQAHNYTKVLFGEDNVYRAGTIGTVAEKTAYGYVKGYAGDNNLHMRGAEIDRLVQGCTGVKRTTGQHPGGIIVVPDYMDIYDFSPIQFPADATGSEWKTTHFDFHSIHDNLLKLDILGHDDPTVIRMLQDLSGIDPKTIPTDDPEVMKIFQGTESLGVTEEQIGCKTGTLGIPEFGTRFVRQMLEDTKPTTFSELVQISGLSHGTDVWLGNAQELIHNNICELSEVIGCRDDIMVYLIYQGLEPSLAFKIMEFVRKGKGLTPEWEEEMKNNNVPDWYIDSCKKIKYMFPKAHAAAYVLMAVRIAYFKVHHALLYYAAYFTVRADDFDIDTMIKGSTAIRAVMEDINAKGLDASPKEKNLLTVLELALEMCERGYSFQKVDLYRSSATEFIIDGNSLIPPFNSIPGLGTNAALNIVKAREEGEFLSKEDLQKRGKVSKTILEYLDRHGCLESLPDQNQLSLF
Protocol: Polymerase IIIC (Pol IIIC) assay. DNA polymerase activity (or inhibition thereof) was measured in a 96-well plate format. B. subtilis Pol IIIC was isolated as described by Hammond and Brown (Protein Expr. Purif., 3: 65-70 (1992)). Each 25 μl assay contained 30 mM Tris, pH 7.5, 10 mM magnesium acetate, 4 mM dithiothreitol, 20% glycerol, with 25 μM dATP, dCTP, dGTP and 10 μM dTTP (3H-labelled at 1.44 Ci/mmole) and 0.4 mg/ml activated calf thymus DNA as substrates, as described previously (see Barnes et al, op. cit). Assays were initiated by the addition of 0.025 to 0.06 units of enzyme 1 unit is the amount required to incorporate 250 pmoles of [^3H] dTMP in a standard assay), incubated for 10 minutes at 30° C. and terminated by the addition of 200 μl of cold 10% trichloroacetic acid (TCA), 10 mM sodium pyrophosphate. Precipitated labeled DNA was collected on glass fiber filter plates, washed, dried, and counted in a liquid scintillation counter.
Determination of Ki values. DNA polymerase activity was measured in a 96-well plate format in the absence of dGTP or dATP, depending on the structure of the test compound. Each 25 μl assay contained 30 mM Tris, pH 7.5, 10 mM magnesium acetate, 4 mM dithiothreitol, 20% glycerol, with 25 μM dATP, dCTP, and 10 μM dTTP (3H-labelled at 1.44 Ci/mmole) and 0.4 mg/ml activated calf thymus DNA as substrates, as described previously. To each well were added 2 μl of compound solution to give final concentrations ranging from 20-0.027 μg/ml in the assay. Assays were initiated by the addition of 0.025 to 0.06 units of enzyme (1 unit is the amount required to incorporate 250 pmoles of [^3H] dTMP in a standard assay), incubated for 10 minutes at 30° C. and terminated by the addition of 200 μl of cold 10% trichloroacetic acid, 10 mM sodium pyrophosphate. Precipitated labeled DNA was collected on glass fiber filter plates, washed, dried, and counted in a liquid scintillation counter. Ki is the concentration of test compound that reduces the control polymerase mc activity by 50 percent.

E. fecium = assay: MIC determination, E. fecium; format: cell-based, Enterococcus fecium
Protocol: as §1

S. aureus (Smith) = assay: MIC determination, S. aureus (Smith); format: cell-based, Staphylococcus aureus
Protocol: as §1, with “C. This plate format conserves test compound and provides precise, quantitative data with low standard deviation determinations.” for “C.”

E. coli = assay: MIC determination, E. coli; format: cell-based, Escherichia coli
Protocol: as §1, with “C. This plate format conserves test compound and provides precise, quantitative data with low standard deviation determinations.” for “C.”

B. subtilis = assay: MIC determination, B. subtilis; format: cell-based, Bacillus subtilis
Protocol: as §1, with “C. This plate format conserves test compound and provides precise, quantitative data with low standard deviation determinations.” for “C.”

S. aureus = assay: MIC determination, S. aureus; format: cell-based, Staphylococcus aureus
Protocol: as §1, with “C. This plate format conserves test compound and provides precise, quantitative data with low standard deviation determinations.” for “C.”

[1] = tested on: MSSA108 (methicillin sensitive S. aureus strain); assay: MIC determination, MSSA108; format: cell-based; settings: Staphylococcus aureus, read-out: MIC (μg/ml) MSSA108
Protocol: as §1, with “C. This plate format conserves test compound and provides precise, quantitative data with low standard deviation determinations.” for “C.”
Compounds were also tested for antibacterial activity against certain clinically relevant strains, e.g., methicillin sensitive (MSSA) and methicillin resistant (MRSA) strains of Staphylococcus aureus.

[2] = tested on: Enterococcus faecalis (ATCC 29212); assay: In vivo efficacy of Compound 70 in mouse model, Enterococcus faecalis; settings: mice, 3 × 10^7 CFU/mouse +5% Mucin; positive control, 100 mg/kg, t = 0
Protocol: (§2) Swiss Webster mice, ca. 20 g each, were infected with Staphylococcus aureus (Smith strain) by the intraperitoneal route. Test compounds (2, 4, 5, 6, 7, 8, 10, 12) were dissolved in 10% dimethylsulfoxide in peanut oil to a concentration of 2 mg/ml. Vancomycin was used as positive control drug (i.e., protection from lethal infection). Fifteen minutes after infection, test compounds, vancomycin, or vehicle alone were given intraperitoneally to groups of five mice each. Animals were monitored for three days, and the number of mice surviving was tabulated for each treatment.
(§3) Using the same basic procedure as described above, the in vivo efficacy of Compound 70 was also evaluated at various doses in mice infected with S. aureaus (Smith), MRSA 1094, Enterococcus faecalis, or vancomycin-resistant Enterococcus faecalis strain VRE 700802. […] Negative controls were mice infected that received no treatment. Mucin was employed as an adjuvant to facilitate bacterial infection in mice, where indicated.

[3] = tested on: enterococci or staphylococci strains, including MRSA and VRE strains; assay: In vivo activity of Compound 70 against intraperitoneal challenge, overall statement; settings: mice; administration from distant parenteral sites (i.e., iv, sc, or im)
Protocol: as §3

[4] = tested on: Staphylococcus aureus (Smith strain); assay: Protection of mice from lethal intraperitoneal infection, compound given intraperitoneally; format: in vivo; settings: 15 minutes after infection
Protocol: FIG. 1B is a bar graph showing number of survivors in each group of five mice at 24 hours after intraperitoneal infection with 1×10^8 colony forming units (CFU) of Staphylococcus aureus (Smith strain) and followed 15 minutes post infection by administration of Compound 2 at a dose of 0 (Vehicle Control), 1, 3, and 10 mg of compound per kg of body weight. Vancomycin at a dose of 10 mg/kg of body weight served as a positive control for antibiotic activity. See text for details.
FIG. 2B is a bar graph showing number of survivors of a group of five mice at 24 hours after intraperitoneal infection with Staphylococcus aureus (Smith strain) as in FIG. 1B, except that Compound 10 was administered to each animal at 0, 0.1, 0.3, 1.0, 3.0, and 10 mg/kg body weight at 15 minutes post infection. Controls were the same as in FIG. 1B. See text for details.
FIG. 3B is a bar graph showing number of survivors in each group of five mice at 24 hours after intraperitoneal infection with Staphylococcus aureus (Smith strain) as in FIG. 1, except that 15 minutes after infection, the mice in each group received a dose of 0.5 mg/kg of body weight of compound 10, 4, 5, 6, 7, 8, or 12. Controls were the same as in FIG. 1. See text for details.
as §2

[5] = tested on: vancomycin-resistant Enterococcus faecalis strain VRE 700802; assay: In vivo efficacy of Compound 70 in mouse model, VRE 700802; settings: mice, 3 × 10^8 CFU/mouse +5% Mucin; positive control, 100 mg/kg, t = 0
Protocol: as §2, §3

[6] = HBI medium, 16 to 18 hours at 37° C.
[7] = Swiss Webster mice, dosage range 1-10 mg/kg body weight

## CCc1cc(Nc2cc(=O)n(CCCCO)c(=O)[nH]2)ccc1C [HB-EMAU, reference compound]
E. fecalis; [6]
  MIC (μg/ml) E. fecalis: 5 µg/mL (≈ 15.8 µM)
B. subtilis Pol IIIC
  Ki: 0.066 µM
E. fecium; [6]
  MIC (μg/ml) E. fecium: 5 µg/mL (≈ 15.8 µM)
S. aureus (Smith); [6]
  MIC (μg/ml) S. aureus (Smith): 5 µg/mL (≈ 15.8 µM)
E. coli; [6]
  MIC (μg/ml) E. coli: >80 µg/mL
B. subtilis; [6]
  MIC (μg/ml) B. subtilis: 1.25 µg/mL (≈ 3.94 µM)
S. aureus; [6]
  MIC (μg/ml) S. aureus: 10 µg/mL (≈ 31.5 µM)

## CCn1cc(C(=O)O)c(=O)c2cc(F)c(N3CCNCC3)cc21 [nflxn, norfloxacin]
B. subtilis Pol IIIC
  Ki (μM) Pol IIIC: inactive

## 3-{5-[1-(1-ethyl-3-carboxy-4-oxo-6,8-difluoro-7-quinolyl)-3-(1,3-diazabicyclononyl)]pentyl}-6-(3-ethyl-4-methylanilino)uracil [Compound 88]
E. fecalis; second table
  MIC (μg/ml) E. fecalis: 2.5 µg/mL
E. fecium; second table
  MIC (μg/ml) E. fecium: 5 µg/mL
S. aureus (Smith); second table
  MIC (μg/ml) S. a. (Smith): 1.25 µg/mL
E. coli; second table
  MIC (μg/ml) E. coil: >20 µg/mL
B. subtilis; second table
  MIC (μg/ml) B. subtilis: 0.625 µg/mL
S. aureus; second table
  MIC (μg/ml) S. aureus: 1.25 µg/mL

## CCc1cc(Nc2cc(=O)n(CCCCN3CCN(c4cc5c(cc4F)c(=O)c(C(=O)O)cn5CC)CC3)c(=O)[nH]2)ccc1C [Compound 1, 3-{4-[1-(1-ethyl-3-carboxy-4-oxo-6-fluoro-7-quinolyl)-4-piperazinyl]butyl}-6-(3-ethyl-4-methylanilino)uracil]
S. aureus (Smith); Staphylococcus aureus, table of clinically relevant strains, read-out: MIC (μg/ml) S. aureus (Smith)
  MIC: 0.313 µg/mL (≈ 0.506 µM)
S. aureus; Staphylococcus aureus, table of clinically relevant strains, read-out: MIC (μg/ml) S. aureus
  MIC: 0.313 µg/mL (≈ 0.506 µM)
[1]
  MIC: 0.313 µg/mL (≈ 0.506 µM)

## CCc1cc(Nc2ccc(NC(=O)N3CCN(c4cc5c(cc4F)c(=O)c(C(=O)O)cn5CC)CC3)c(=O)[nH]2)ccc1C [Compound 77, 3-{[1-(1-ethyl-3-carboxy-4-oxo-6-fluoro-7-quinolyl)-4-piperazinyl]carboxamido}-6-(3-ethyl-4-methylanilino)-2-pyridone]
B. subtilis Pol IIIC; second table
  Ki: 8 µM

## CN[C@H](CC(C)C)C(=O)N[C@H]1C(=O)N[C@@H](CC(N)=O)C(=O)N[C@H]2C(=O)N[C@H]3C(=O)N[C@H](C(=O)N[C@H](C(=O)O)c4cc(O)cc(O)c4-c4cc3ccc4O)[C@H](O)c3ccc(c(Cl)c3)Oc3cc2cc(c3O[C@@H]2O[C@H](CO)[C@@H](O)[C@H](O)[C@H]2O[C@H]2C[C@](C)(N)[C@H](O)[C@H](C)O2)Oc2ccc(cc2Cl)[C@H]1O [vancomycin]
[2]
  % Survival at 72 hours: 100% (10/10)**

## CCc1cc(Nc2cc(=O)n(CCCCN3CCN(c4c(F)cc5c(=O)c(C(=O)O)cn(C6CC6)c5c4F)CC3C)c(=O)[nH]2)ccc1C (centres unmarked) [Compound 70, 3-{4-[1-(1-cyclopropyl-3-carboxy-4-oxo-6,8-difluoro-7-quinolyl)-4-(3-methylpiperazinyl)]butyl}-6-(3-ethyl-4-methylanilino)uracil]
[3]
  activity against intraperitoneal challenge: dose-related activity

## CCc1cc(Nc2cc(=O)n(CCCCN3CCN(c4cc5c(cc4F)c(=O)c(C(=O)O)cn5C4CC4)CC3)c(=O)[nH]2)ccc1C.CS(=O)(=O)O [Compound 10, 3-{4-[1-(1-cyclopropyl-3-carboxy-4-oxo-6-fluoro-7-quinolyl)-4-piperazinyl]butyl}-6-(3-ethyl-4-methylanilino)uracil methanesulfonate]
[4]; dose 0.3 mg per kg body weight
  infected mice protected from death (group of five): one of five
[4]; dose of 1 mg/kg or higher
  protection of infected mice (group of five): complete protection
[4]; [7]
  protection of infected mice (group of five): provided protection in the same dosage range as Compound 2

## O=C(O)c1cn(C2CC2)c2cc(N3CCNCC3)c(F)cc2c1=O [cflxn, ciprofloxacin]
B. subtilis Pol IIIC
  Ki (μM) Pol IIIC: inactive
[5]
  % Survival at 72 hours: 90% (9/10)**

## CCc1cc(Nc2cc(=O)n(CCCCN3CCN(c4cc5c(cc4F)c(=O)c(C(=O)O)cn5C4CC4)CC3)c(=O)[nH]2)ccc1C [Compound 2, 3-{4-[1-(1-cyclopropyl-3-carboxy-4-oxo-6-fluoro-7-quinolyl)-4-piperazinyl]butyl}-6-(3-ethyl-4-methylanilino)uracil]
[4]; [7]
  protection of infected mice (group of five): protection was afforded all five infected mice
